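Test compounds were applied to cells in 96-well plates for 48 hours at 5 doses. The concentration for 50% growth inhibition is given as GI50. TGI: concentration producing complete growth inhibition.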
Tests used:
Assay in all cases: inhibition of tumour cell growth, NCI panel, 48 h
786-0 renal = system: 786-0 renal
A498 renal = system: A498 renal
A549 NSCLC = system: A549 NSCLC
ACHN renal = system: ACHN renal
BT-549 breast = system: BT-549 breast
CAKI-1 renal = system: CAKI-1 renal
CCRF-CEM leukemia = system: CCRF-CEM leukemia
COLO 205 colon = system: COLO 205 colon
DU-145 prostate = system: DU-145 prostate
EKVX NSCLC = system: EKVX NSCLC
HCC-2998 colon = system: HCC-2998 colon
HCT-116 colon = system: HCT-116 colon
HCT-15 colon = system: HCT-15 colon
HL-60(TB) leukemia = system: HL-60(TB) leukemia
HOP-62 NSCLC = system: HOP-62 NSCLC
HOP-92 NSCLC = system: HOP-92 NSCLC
HS 578T breast = system: HS 578T breast
IGROV1 ovarian = system: IGROV1 ovarian
K-562 leukemia = system: K-562 leukemia
KM12 colon = system: KM12 colon
LOX IMVI melanoma = system: LOX IMVI melanoma
M14 melanoma = system: M14 melanoma
MALME-3M melanoma = system: MALME-3M melanoma
MCF7 breast = system: MCF7 breast
MDA-MB-231 breast = system: MDA-MB-231 breast
MDA-MB-435 = system: MDA-MB-435
MDA-MB-468 breast = system: MDA-MB-468 breast
MOLT-4 leukemia = system: MOLT-4 leukemia

With `CSc1ccccc1NC(=O)c1ccc2nnn(/C(C#N)=C/c3ccccn3)c2c1` the GI50 (786-0 renal) was 1.82 µM, the TGI (786-0 renal) was 3.38 µM and the GI50 (A498 renal) was 15.3 µM. The TGI (A498 renal) was 28.6 µM, the GI50 (A549 NSCLC) was 10.2 µM and the TGI (A549 NSCLC) was 23.6 µM. The GI50 (ACHN renal) was 1.78 µM, the TGI (ACHN renal) was 3.17 µM and the GI50 (BT-549 breast) was 2.32 µM. For the same molecule, the TGI (BT-549 breast) was 7.2 µM, the GI50 (CAKI-1 renal) was 1.55 µM and the TGI (CAKI-1 renal) was 2.92 µM. For the same molecule, the GI50 (CCRF-CEM leukemia) was 3 µM, the TGI (CCRF-CEM leukemia) was over 100 µM and the GI50 (COLO 205 colon) was 2.02 µM. It also gave a TGI (COLO 205 colon) of 3.63 µM, a GI50 (DU-145 prostate) of 1.93 µM and a TGI (DU-145 prostate) of 3.64 µM. It also gave a GI50 (EKVX NSCLC) of 4.59 µM, a TGI (EKVX NSCLC) of 16.1 µM and a GI50 (HCC-2998 colon) of 1.78 µM. For the same molecule, the TGI (HCC-2998 colon) was 3.33 µM, the GI50 (HCT-116 colon) was 1.8 µM and the TGI (HCT-116 colon) was 3.46 µM. It also gave a GI50 (HCT-15 colon) of 1.67 µM, a TGI (HCT-15 colon) of 3.54 µM and a GI50 (HL-60(TB) leukemia) of 1.9 µM. For the same molecule, the TGI (HL-60(TB) leukemia) was 5.97 µM, the GI50 (HOP-62 NSCLC) was 15.7 µM and the TGI (HOP-62 NSCLC) was 30.9 µM. The GI50 (HOP-92 NSCLC) was 1.89 µM, the TGI (HOP-92 NSCLC) was 7.5 µM and the GI50 (HS 578T breast) was 3.29 µM. The TGI (HS 578T breast) was 13.3 µM, the GI50 (IGROV1 ovarian) was 2.07 µM and the TGI (IGROV1 ovarian) was 4.46 µM. For the same molecule, the GI50 (K-562 leukemia) was 1.84 µM, the TGI (K-562 leukemia) was 6.86 µM and the GI50 (KM12 colon) was 3.08 µM. The TGI (KM12 colon) was 10.7 µM, the GI50 (LOX IMVI melanoma) was 1.7 µM and the TGI (LOX IMVI melanoma) was 3.19 µM. For the same molecule, the GI50 (M14 melanoma) was 2 µM, the TGI (M14 melanoma) was 3.98 µM and the GI50 (MALME-3M melanoma) was 1.75 µM. It also gave a TGI (MALME-3M melanoma) of 3.29 µM, a GI50 (MCF7 breast) of 1.69 µM and a TGI (MCF7 breast) of 3.36 µM. It also gave a GI50 (MDA-MB-231 breast) of 1.99 µM, a TGI (MDA-MB-231 breast) of 4.06 µM and a GI50 (MDA-MB-435) of 2.07 µM. For the same molecule, the TGI (MDA-MB-435) was 4.89 µM, the GI50 (MDA-MB-468 breast) was 1.6 µM and the TGI (MDA-MB-468 breast) was 3.32 µM. The GI50 (MOLT-4 leukemia) was 3.29 µM and the TGI (MOLT-4 leukemia) was 9.07 µM.
